Molecular target: benzodiazepine receptors (3H-flunitrazepam labelled binding sites)
Experiment: 3H-flunitrazepam competition binding assay, crude synaptosomal membranes of rat frontal cortex
Conditions: 1 nM 3H-flunitrazepam
Experimental: For the binding experiment male RjHan:WI rats (Janvier, Le Genest-Saint-Isle, France) were used. […] The animals were housed in groups of 5 in Macrolon IV cages.
For the ^3H-GABA binding assay tissue (dissected rat frontal cortex) was homogenized in 50 mM Tris-HCl buffer pH 7.4 containing 120 mM NaCl, 5 mM KCl, 2 mM CaCl2 and 1 mM MgCl2; for ^3H-flunitrazepam it was homogenized in 50 mM Tris-HCl buffer pH 7.4 containing 1 mM EGTA, 10 mM EDTA and 3 mM MgCl2, centrifuged (50.000 g, 15 min) and washed twice with the corresponding buffer. The resulting pellet was resuspended with buffer. […] Specific binding was calculated by subtracting non-specific binding—defined as that seen in the presence of 1 μM unlabelled GABA or 1 μM diazepam or chlordiazepoxide—from the total binding obtained with radioligand alone. In parallel VE-1, VE-2 and AVA were used for all binding assays. The incubation was terminated by addition of ice-cold buffer and rapid filtration through glass fibre filters. The filters were washed, dried, a scintillation cocktail was added, and radioactivity was counted using a β-counter (Beckman Coulter, Germany).

SMILES: CN1C(=O)CN=C(c2ccccc2)c2cc(Cl)ccc21 [Diazepam, diazepam]
- EC50: 400 ± 50 nM
